The test system of experiment [1] is Pyricularia oryzae. The format is in vivo. The note with it: individual active compound, rice 'Tai-Nong 67', protective, 6 days, untreated control 60% infection.
Experiment [2] has as its system Cochliobolus miyabeanus. In words: Activity against brown spot of rice caused by Cochliobolus miyabeanus, protective application. The format is in vivo.

Several values for one entry are separate records, joined by “and”; a condition that tells them apart may be missing. Identical values can stand only once. Like-named read-outs stand apart in the source and are kept apart here.

As to `CC1CCN(c2c(-c3c(F)cc(F)cc3F)c(Cl)nc3ncnn23)CC1` [I, 5-chloro-7-(4-methylpiperidin-1-yl)-6-(2,4,6-trifluorophenyl)-[1,2,4]triazolo[1,5-a]pyrimidine], the “Efficacy in % of the untreated control” value is 67% in experiment [1] (16 ppm in the spray liquor); 33% in experiment [2] (individual active compound, 4 ppm in the spray liquor, rice 'Tai-Nong 67', protective, six days, untreated control 90% infection); 33% and 56% in experiment [2] (individual active compound, 16 ppm in the spray liquor, rice 'Tai-Nong 67', protective, six days, untreated control 90% infection).

`CC1CCN(c2c(-c3c(F)cccc3Cl)c(Cl)nc3ncnn23)CC1` [Comparison A]: the “Efficacy in % of the untreated control” value in experiment [1] (16 ppm in the spray liquor) came to 59%.

As to `CO/N=C(/C(=O)OC)c1ccccc1CO/N=C(\C)c1cccc(C(F)(F)F)c1` [II (trifloxystrobin), methyl (E)-methoxyimino-{(E)-α-[1-(α,α,α-trifluoro-m-tolyl)ethylideneaminooxy]o-tolyl}acetate], the “Efficacy in % of the untreated control” value is reported as 2% in experiment [1] (4 ppm in the spray liquor), 2% in experiment [1] (16 ppm in the spray liquor) and 0% in experiment [2] (in vivo).

In the case of `C[C@H](Nc1c(-c2c(F)cc(F)cc2F)c(Cl)nc2ncnn12)C(F)(F)F` [Comparison B], the “Efficacy in % of the untreated control” value in experiment [1] (16 ppm in the spray liquor) amounted to 67%.
